Reference: ChEMBL document CHEMBL1201862, “PubChem BioAssay data set” (2004)
Calls of active or inactive are those of the source.

Assays:
[1] = target: Signal transducer and activator of transcription 1-alpha/beta (Homo sapiens, UniProt P42224); test: STAT3 inhibitors, late-stage profile, late-stage follow-up, cell-based, STAT1 panel, qPCR, cytotoxicity, panel member STAT1 Inhibition (AID 2078)
[2] = target: Signal transducer and activator of transcription 3 (Homo sapiens, UniProt P40763); test: STAT3 inhibitors, late-stage profile, late-stage follow-up, cell-based, STAT1 panel, qPCR, cytotoxicity, panel member STAT3 Inhibition (AID 2078)
[3] = target: T1, Orexin/Hypocretin receptor type 1 (Homo sapiens, UniProt O43613); test: Fluorescence-based cell-based high throughput dose response assay for antagonists of the orexin 1 receptor (OX1R; HCRTR1). [Related pubchem assays (depositor defined):AID434989, AID435008, AID463079, AID485270, AID492963, AID492964, AID492965, AID493232, AID504717, AID504718]; assay type: functional
[4] = Counterscreen for antagonists of the orexin 1 receptor (OX1R; HCRTR1): Fluorescence-based cell-based high throughput dose response assay to identify antagonists of the parental CHO cell line. [Related pubchem assays (depositor defined):AID434989, AID435008, AID463079, AID485270, AID492963, AID492964, AID492965, AID493232, AID504699, AID504701]; assay type: functional
CHO-K1 = test: Counterscreen for antagonists of the orexin 1 receptor (OX1R; HCRTR1): Homogeneous time resolved fluorescence (HTRF)-based cell-based dose response assay to identify antagonists of the parental CHO-K1 cell line. [Related pubchem assays (depositor defined):AID434989, AID435008, AID463079, AID485270, AID492963, AID492964, AID492965, AID493232, AID504699, AID504701]; assay type: functional; conditions: Cricetulus griseus;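 note: potency for inhibition of ATP-stimulated IP1 production as antagonists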
[5] = target: T1, Orexin/Hypocretin receptor type 1; test: Homogeneous Time Resolved Fluorescence (HTRF)-based cell-based high throughput dose response assay for antagonists of the orexin 1 receptor (OX1R; HCRTR1). [Related pubchem assays (depositor defined):AID434989, AID435008, AID463079, AID485270, AID492963, AID492964, AID492965, AID493232, AID504717, AID504718]; assay type: functional
[6] = target: Lysine-specific demethylase 4A (Homo sapiens, UniProt O75164); test: JMJD2A histone demethylase inhibitors, dose response, selectivity assay for GASC-1 inhibitor project, biochemical, DELFIA europium, cherry-picked samples (AID 488840)
[7] = target: T2, Tyrosine-protein phosphatase non-receptor type 7 (Homo sapiens, UniProt P35236); test: HePTP (PTPN7) phosphatase inhibitor potency, SAR follow-up, biochemical, set 2 (AID 449736); assay type: functional
T2 sequence (P35236 whole entry): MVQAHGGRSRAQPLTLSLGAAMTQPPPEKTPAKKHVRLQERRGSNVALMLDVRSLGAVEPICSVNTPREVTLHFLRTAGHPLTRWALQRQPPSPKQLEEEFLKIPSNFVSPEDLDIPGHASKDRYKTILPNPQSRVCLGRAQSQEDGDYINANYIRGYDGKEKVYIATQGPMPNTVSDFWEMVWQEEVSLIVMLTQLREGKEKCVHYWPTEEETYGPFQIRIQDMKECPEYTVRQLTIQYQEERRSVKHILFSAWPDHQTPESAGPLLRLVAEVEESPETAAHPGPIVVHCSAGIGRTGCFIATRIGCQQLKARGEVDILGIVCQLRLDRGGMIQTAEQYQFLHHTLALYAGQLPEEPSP

[8] = target: T3, Dual specificity protein phosphatase 3 (Homo sapiens, UniProt P51452); test: VHR1 phosphatase inhibitors, primary screen, biochemical, absorbance, uHTS (AID 1654)
[9] = target: T2, Tyrosine-protein phosphatase non-receptor type 7; test: HTS HePTP Fluorescent Assay using OMFP substrate for In Vitro dose response studies. [Related pubchem assays (depositor defined):AID1059, AID1077, AID1784, AID2068, AID2085, AID435032, AID521]; assay type: functional
[10] = target: T4, Tyrosine-protein phosphatase non-receptor type 22 (Homo sapiens, UniProt Q9Y2R2); test: SAR LYP1 Fluorescent Assay using OMFP substrate for In Vitro dose response studies - Set 3. [Related pubchem assays (depositor defined):AID1779, AID1784, AID2140, AID2686]; assay type: functional
T4 sequence (Q9Y2R2 whole entry): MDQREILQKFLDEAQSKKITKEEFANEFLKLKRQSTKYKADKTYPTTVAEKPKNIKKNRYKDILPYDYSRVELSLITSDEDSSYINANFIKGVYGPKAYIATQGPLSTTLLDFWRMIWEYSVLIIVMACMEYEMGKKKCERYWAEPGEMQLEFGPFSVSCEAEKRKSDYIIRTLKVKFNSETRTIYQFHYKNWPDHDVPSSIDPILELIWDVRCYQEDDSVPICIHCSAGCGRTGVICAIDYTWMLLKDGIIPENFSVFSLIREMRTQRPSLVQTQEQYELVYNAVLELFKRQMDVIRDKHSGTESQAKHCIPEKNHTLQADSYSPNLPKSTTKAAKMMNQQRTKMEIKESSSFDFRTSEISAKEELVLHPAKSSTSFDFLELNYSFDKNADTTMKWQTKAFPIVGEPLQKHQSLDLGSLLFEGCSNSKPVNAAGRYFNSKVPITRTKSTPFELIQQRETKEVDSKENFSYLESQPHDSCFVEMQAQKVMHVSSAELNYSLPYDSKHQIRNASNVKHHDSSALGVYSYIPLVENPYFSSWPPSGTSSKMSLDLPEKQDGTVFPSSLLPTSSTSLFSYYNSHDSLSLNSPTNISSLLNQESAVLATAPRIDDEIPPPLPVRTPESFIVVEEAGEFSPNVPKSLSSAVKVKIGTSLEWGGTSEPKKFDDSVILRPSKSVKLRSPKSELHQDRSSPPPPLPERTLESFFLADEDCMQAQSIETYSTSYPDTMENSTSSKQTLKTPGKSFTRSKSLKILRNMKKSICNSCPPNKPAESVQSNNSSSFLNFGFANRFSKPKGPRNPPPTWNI

[11] = target: T5, Low molecular weight phosphotyrosine protein phosphatase (Homo sapiens, UniProt P24666); assay type: functional; conditions: read-out: IC50_Mean
[12] = target: T4, Tyrosine-protein phosphatase non-receptor type 22; test: PubChem AID 2140
[13] = target: T4, Tyrosine-protein phosphatase non-receptor type 22; test: LYP (PTPN22) phosphatase inhibitor potency, SAR follow-up, biochemical, pCAP fluorogenic substrate, fluorescence, set 3 (AID 449727); assay type: functional
[14] = target: T3, Dual specificity protein phosphatase 3; test: VHR1 phosphatase inhibitors, biochemical (AID 1878)
[15] = target: T4, Tyrosine-protein phosphatase non-receptor type 22; assay type: functional
[16] = target: T5, Low molecular weight phosphotyrosine protein phosphatase; assay type: functional; conditions: read-out: IC50_Mean; remark: listed apart in the source
[17] = target: T4, Tyrosine-protein phosphatase non-receptor type 22; test: SAR LYP1 Fluorescent Assay using OMFP substrate for In Vitro dose response studies - Set 2. [Related pubchem assays (depositor defined):AID1779, AID1784, AID2140, AID449726, AID488869]; assay type: functional
[18] = target: T4, Tyrosine-protein phosphatase non-receptor type 22; test: LYP1 Fluorescent Assay using OMFP substrate for In Vitro dose response studies. [Related pubchem assays (depositor defined):AID1779, AID1784, AID435024]
[19] = target: Tyrosine-protein phosphatase non-receptor type 12 (Homo sapiens, UniProt Q05209); test: SAR Selectivity Analysis of small molecule inhibitors of PEST using pCAP in a fluorescence assay. [Related pubchem assays (depositor defined):AID1779, AID1784, AID2135]; assay type: functional
[20] = target: T4, Tyrosine-protein phosphatase non-receptor type 22; test: SAR LYP1 Fluorescent Assay using pCAP substrate for In Vitro dose response studies - Set 2. [Related pubchem assays (depositor defined):AID1779, AID1784, AID2135, AID449727]; assay type: functional
[21] = target: T4, Tyrosine-protein phosphatase non-receptor type 22; test: PubChem AID 2135
[22] = target: T2, Tyrosine-protein phosphatase non-receptor type 7; assay type: functional
[23] = target: T4, Tyrosine-protein phosphatase non-receptor type 22; test: inhibitors of LYP phosphatase, biochemical, fluorescence intensity, uHTS (AID 1779)
[24] = target: T6, Dual specificity protein phosphatase 6 (Rattus norvegicus, UniProt Q64346); test: MKP-3 phosphatase inhibitors, primary screen, biochemical, rat enzyme, in vitro (AID 425)
T6 sequence (Q64346 whole entry): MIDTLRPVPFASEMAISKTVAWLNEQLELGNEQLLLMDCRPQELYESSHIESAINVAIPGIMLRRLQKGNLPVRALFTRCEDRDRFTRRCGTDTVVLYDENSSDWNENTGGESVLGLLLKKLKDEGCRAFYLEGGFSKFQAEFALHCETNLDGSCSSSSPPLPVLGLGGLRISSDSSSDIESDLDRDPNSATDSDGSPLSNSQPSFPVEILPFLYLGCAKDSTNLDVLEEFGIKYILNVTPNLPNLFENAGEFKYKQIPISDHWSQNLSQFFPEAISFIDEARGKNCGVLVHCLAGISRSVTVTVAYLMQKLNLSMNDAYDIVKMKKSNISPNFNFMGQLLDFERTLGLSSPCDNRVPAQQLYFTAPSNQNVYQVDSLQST

HEK293 [25] = test: cells; conditions: Homo sapiens
HEK293 [26] = test: cells; assay type: functional, cell-based; conditions: Homo sapiens
HEK293 [27] = test: cells; assay type: functional, cell-based; conditions: Homo sapiens; remark: listed apart in the source
HEK293 [28] = test: NOD2 signaling inhibitors in MDP-stimulated cells, cell-based, uHTS, luminescence (AID 2001); assay type: functional; conditions: Homo sapiens
HEK293 [29] = test: cells; assay type: functional, cell-based; conditions: Homo sapiens; remark: listed apart in the source
HEK293 [30] = test: NOD1 signaling inhibitors, primary screen, cell-based, luminescence, uHTS (AID 1578); assay type: functional; conditions: Homo sapiens
[31] = target: T7, Carboxy-terminal domain RNA polymerase II polypeptide A small phosphatase 1 (Homo sapiens, UniProt Q9GZU7); test: inhibitors of CTDSP1, concentration-response testing, biochemical assay, absorbance-based, actives from ultra-high-throughput screening (AID 540297); assay type: functional
T7 sequence (Q9GZU7 whole entry): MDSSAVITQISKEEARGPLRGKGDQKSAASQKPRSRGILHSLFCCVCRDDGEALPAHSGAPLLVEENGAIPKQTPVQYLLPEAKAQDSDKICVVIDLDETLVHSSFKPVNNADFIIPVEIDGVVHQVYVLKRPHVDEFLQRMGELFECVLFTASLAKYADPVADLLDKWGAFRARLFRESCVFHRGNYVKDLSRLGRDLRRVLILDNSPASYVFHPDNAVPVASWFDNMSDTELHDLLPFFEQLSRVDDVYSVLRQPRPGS

SUMO-activating enzyme [32] = target: T8, SUMO-activating enzyme (Homo sapiens, UniProt Q9UBT2); test: SUMOylation inhibitor hit validation, confirmation, SUMOylation inhibitor project, biochemical, AlphaScreen (AID 2018); assay type: functional
Coagulation factor XII = target: T9, Coagulation factor XII (Homo sapiens, UniProt P00748); assay type: functional;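 note: activated factor XIIa alpha cleaving a fluorogenic AMC peptide substrate; inhibitor potency from loss of enzyme activity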
T9 sequence (P00748 whole entry): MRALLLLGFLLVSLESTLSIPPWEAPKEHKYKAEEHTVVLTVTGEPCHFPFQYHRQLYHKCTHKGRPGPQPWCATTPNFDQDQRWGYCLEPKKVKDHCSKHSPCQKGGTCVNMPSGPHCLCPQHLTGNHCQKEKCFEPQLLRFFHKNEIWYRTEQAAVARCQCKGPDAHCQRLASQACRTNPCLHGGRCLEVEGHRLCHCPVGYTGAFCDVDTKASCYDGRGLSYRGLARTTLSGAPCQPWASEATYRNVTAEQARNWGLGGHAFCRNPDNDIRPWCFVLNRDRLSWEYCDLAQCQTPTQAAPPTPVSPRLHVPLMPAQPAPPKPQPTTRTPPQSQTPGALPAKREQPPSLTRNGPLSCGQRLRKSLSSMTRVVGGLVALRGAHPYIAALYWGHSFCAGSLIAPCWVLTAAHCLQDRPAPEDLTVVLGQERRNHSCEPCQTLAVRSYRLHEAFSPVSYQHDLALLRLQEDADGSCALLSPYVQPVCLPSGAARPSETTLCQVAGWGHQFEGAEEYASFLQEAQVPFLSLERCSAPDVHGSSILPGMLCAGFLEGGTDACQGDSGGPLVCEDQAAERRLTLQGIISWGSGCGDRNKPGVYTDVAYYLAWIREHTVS

SUMO-activating enzyme [33] = target: T8, SUMO-activating enzyme; test: inhibitors of in vitro SUMOylation cascade, primary screen, biochemical, HTRF, uHTS (AID 2006); assay type: protein-complex assay

T8 sequence (Q9UBE0 whole entry): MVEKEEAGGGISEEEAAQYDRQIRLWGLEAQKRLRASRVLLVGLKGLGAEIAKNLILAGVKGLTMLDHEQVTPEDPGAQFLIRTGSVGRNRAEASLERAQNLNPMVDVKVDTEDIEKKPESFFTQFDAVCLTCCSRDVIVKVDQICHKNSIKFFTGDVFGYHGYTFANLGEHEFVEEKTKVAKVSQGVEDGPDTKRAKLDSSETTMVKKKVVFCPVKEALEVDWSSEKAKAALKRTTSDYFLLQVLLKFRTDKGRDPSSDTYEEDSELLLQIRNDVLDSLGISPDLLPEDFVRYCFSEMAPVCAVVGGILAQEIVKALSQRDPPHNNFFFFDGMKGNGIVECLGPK
T8 sequence (Q9UBT2 whole entry): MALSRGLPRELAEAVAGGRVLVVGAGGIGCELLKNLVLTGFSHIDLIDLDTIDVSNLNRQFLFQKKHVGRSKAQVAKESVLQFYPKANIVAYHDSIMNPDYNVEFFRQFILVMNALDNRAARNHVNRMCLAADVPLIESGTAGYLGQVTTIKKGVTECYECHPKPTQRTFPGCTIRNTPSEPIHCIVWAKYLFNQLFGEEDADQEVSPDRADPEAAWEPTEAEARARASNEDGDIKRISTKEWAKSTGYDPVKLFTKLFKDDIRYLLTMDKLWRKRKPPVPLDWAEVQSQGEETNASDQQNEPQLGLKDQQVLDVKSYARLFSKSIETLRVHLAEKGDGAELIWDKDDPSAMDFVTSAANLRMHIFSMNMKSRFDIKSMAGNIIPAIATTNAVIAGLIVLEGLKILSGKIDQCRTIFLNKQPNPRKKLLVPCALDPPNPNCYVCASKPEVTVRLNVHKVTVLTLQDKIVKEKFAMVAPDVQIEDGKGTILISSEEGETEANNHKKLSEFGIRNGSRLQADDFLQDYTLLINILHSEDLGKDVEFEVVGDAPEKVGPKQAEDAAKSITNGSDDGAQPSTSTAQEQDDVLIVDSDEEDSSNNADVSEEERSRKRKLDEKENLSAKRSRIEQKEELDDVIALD
T5 sequence (P24666 whole entry): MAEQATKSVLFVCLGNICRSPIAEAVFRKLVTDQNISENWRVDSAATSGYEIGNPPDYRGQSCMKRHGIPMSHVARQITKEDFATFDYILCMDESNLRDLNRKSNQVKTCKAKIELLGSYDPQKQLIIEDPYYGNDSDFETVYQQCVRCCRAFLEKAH
T1 sequence (O43613 whole entry): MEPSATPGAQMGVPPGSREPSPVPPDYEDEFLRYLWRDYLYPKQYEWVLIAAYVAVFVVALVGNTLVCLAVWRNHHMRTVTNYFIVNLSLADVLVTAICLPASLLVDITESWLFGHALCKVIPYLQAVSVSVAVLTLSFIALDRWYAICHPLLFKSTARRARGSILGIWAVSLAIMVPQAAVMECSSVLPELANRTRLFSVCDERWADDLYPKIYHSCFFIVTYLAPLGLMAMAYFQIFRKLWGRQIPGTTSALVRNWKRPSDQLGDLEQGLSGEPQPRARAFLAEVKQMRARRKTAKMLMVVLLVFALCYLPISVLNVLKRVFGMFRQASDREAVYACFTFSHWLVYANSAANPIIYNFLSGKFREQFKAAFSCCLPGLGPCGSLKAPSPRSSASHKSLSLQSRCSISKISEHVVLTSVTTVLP
T3 sequence (P51452 whole entry): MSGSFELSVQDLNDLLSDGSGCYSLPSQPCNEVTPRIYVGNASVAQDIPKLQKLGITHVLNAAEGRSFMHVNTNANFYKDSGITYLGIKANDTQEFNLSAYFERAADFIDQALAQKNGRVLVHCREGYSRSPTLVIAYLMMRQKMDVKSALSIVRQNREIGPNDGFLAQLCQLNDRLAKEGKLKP
Chain of Tyrosine-protein phosphatase non-receptor type 12 (Q05209 whole entry): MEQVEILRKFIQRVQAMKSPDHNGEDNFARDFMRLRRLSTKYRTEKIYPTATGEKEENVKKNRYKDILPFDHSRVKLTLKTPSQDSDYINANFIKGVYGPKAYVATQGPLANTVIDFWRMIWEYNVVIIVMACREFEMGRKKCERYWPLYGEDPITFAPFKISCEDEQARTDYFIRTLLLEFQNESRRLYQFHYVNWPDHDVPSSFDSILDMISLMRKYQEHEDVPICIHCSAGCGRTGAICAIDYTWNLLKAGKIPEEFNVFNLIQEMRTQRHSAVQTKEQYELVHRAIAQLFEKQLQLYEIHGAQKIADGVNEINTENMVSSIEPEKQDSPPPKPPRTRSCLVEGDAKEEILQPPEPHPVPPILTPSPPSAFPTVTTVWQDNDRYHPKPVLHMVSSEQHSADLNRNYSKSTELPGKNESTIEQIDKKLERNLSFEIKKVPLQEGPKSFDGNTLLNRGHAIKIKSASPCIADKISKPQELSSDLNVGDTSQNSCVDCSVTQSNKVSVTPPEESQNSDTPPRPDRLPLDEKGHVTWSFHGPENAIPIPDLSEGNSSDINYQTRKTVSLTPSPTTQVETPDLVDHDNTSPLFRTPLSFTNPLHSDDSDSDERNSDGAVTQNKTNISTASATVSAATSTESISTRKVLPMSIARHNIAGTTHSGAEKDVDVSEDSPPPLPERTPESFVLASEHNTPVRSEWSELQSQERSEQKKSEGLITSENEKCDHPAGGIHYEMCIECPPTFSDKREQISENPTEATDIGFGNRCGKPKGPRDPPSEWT
Chain of Signal transducer and activator of transcription 3 (P40763 whole entry): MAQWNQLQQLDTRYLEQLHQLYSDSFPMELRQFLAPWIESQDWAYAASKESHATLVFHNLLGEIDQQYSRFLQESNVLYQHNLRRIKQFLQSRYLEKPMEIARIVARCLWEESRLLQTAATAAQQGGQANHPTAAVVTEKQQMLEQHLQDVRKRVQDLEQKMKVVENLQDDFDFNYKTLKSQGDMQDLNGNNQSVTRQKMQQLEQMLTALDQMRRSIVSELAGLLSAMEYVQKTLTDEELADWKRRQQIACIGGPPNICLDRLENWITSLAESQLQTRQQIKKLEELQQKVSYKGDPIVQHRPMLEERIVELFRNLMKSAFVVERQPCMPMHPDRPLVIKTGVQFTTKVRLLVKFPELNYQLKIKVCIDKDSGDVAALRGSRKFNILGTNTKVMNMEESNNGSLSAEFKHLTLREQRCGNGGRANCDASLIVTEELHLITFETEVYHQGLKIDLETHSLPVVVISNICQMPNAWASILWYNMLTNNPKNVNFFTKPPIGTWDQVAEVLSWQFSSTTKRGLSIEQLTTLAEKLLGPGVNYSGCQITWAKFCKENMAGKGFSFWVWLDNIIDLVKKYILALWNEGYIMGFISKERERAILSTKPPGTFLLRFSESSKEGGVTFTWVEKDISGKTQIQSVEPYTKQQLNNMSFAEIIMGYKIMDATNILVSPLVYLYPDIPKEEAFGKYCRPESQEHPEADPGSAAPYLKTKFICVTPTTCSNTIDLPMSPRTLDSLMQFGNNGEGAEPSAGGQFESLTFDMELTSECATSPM
Chain of Signal transducer and activator of transcription 1-alpha/beta (P42224 whole entry): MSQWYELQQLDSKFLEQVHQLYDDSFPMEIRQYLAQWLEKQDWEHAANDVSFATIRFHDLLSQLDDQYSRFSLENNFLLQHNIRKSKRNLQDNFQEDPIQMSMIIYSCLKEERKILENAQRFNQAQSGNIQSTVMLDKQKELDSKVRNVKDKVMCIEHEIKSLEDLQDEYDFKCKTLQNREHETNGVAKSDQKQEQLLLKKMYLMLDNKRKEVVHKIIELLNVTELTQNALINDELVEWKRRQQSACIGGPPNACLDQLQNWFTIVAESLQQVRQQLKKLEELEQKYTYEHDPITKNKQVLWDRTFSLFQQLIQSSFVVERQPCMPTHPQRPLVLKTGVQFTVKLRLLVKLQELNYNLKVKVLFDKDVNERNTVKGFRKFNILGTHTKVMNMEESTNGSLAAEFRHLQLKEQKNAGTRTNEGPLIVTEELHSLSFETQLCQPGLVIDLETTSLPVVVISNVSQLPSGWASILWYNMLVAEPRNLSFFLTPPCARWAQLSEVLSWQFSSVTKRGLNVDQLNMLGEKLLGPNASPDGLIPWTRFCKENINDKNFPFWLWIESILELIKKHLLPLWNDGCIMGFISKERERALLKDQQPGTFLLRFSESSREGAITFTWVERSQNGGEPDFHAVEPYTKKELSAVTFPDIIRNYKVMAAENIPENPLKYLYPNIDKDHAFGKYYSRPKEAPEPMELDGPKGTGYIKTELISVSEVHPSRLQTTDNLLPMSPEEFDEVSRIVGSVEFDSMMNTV

c1ccc(CC2CCN(c3nc(CN4CCOCC4)nc4sc5c(c34)CCCC5)CC2)cc1
inactive: IC50 [1] > 55.7 µM | IC50 [2] > 55.7 µM

Cn1cc(/C=C(\C#N)C(=O)Nc2ccccc2O)c2ccccc21
inactive: IC50 [4] 25 µM | IC50 (CHO-K1) > 66.2 µM
active: IC50 [3] 5.57 µM | IC50 [5] 4.48 µM

O=c1nc(SCc2cccc(C(F)(F)F)c2)nc2ccccn12
inactive: AC50 [6] > 60 µM

Cc1ccc(/C=C/c2nc(O)c3c(C)c(C(=O)O)sc3n2)cc1[N+](=O)[O-]
inactive: IC50 [9] > 99 µM | IC50 [11] > 80 µM | IC50 [16] 32.7 µM
active: IC50 [7] 2.92 µM | IC50 [8] 11.1 µM | IC50 [10] 10.7 µM | IC50 [12] 50.9 µM | IC50 [13] 6.19 µM | IC50 [14] 1.62 µM | IC50 [15] 11.2 µM | IC50 [17] 4.56 µM | IC50 [18] 16.8 µM | IC50 [19] 3.43 µM | IC50 [20] 3.17 µM | IC50 [21] 6.6 µM | IC50 [22] 12.2 µM | IC50 [23] 12.9 µM | IC50 [24] 8.48 µM

O=C(CSc1nc(O)c2c(-c3ccccc3)csc2n1)Nc1ccccc1
inactive: IC50 (HEK293 [25]) > 20 µM | IC50 (HEK293 [29]) > 20 µM
active: IC50 (HEK293 [26]) 4.78 µM | IC50 (HEK293 [27]) 16 µM | IC50 (HEK293 [28]) 1.93 µM | EC50 (HEK293 [30]) 5.71 µM

COc1ccc(C2=NN(C(=O)CCCC(=O)O)C(c3cn(-c4ccccc4)nc3-c3ccccc3)C2)cc1 (stereo not given)
active: IC50 [31] 3.91 µM | IC50 (SUMO-activating enzyme [32]) 19.8 µM | IC50 (SUMO-activating enzyme [33]) 17.5 µM
inactive: IC50 (Coagulation factor XII) > 50 µM
